From PMC5391474, “Investigation of the Role of Protein Kinase D in Human Rhinovirus Replication” (Journal of Virology, 2017)

How the values were obtained:
Assay in all cases: biochemical
Parameters in all cases: in vitro kinase selectivity panel, protein and lipid kinases, single concentration, ATP at Km
Settings in all cases: ATP at Km
HIPK1(h) = HIPK1(h) (Homo sapiens, UniProt Q86Z02)
Method in brief: (§1)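 Single-point screen against a protein and lipid kinase panel: inhibitor at 1 μM. ATP concentration for every kinase equivalent to its Km.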

SPHK2 = SPHK2 (Homo sapiens, UniProt Q9NRA0)
Method in brief: as §1

ALK(h) = ALK(h) (Homo sapiens, UniProt Q9UM73)
Method in brief: as §1

EphA2(h) = EphA2(h) (Homo sapiens, UniProt P29317)
Method in brief: as §1

Flt4(h) = Flt4(h) (Homo sapiens, UniProt P35916)
Method in brief: as §1

TrkA(h) = target: T1, TrkA(h) (Homo sapiens, UniProt P04629)
T1 construct: gene NTRK1
T1 sequence (P04629 whole entry): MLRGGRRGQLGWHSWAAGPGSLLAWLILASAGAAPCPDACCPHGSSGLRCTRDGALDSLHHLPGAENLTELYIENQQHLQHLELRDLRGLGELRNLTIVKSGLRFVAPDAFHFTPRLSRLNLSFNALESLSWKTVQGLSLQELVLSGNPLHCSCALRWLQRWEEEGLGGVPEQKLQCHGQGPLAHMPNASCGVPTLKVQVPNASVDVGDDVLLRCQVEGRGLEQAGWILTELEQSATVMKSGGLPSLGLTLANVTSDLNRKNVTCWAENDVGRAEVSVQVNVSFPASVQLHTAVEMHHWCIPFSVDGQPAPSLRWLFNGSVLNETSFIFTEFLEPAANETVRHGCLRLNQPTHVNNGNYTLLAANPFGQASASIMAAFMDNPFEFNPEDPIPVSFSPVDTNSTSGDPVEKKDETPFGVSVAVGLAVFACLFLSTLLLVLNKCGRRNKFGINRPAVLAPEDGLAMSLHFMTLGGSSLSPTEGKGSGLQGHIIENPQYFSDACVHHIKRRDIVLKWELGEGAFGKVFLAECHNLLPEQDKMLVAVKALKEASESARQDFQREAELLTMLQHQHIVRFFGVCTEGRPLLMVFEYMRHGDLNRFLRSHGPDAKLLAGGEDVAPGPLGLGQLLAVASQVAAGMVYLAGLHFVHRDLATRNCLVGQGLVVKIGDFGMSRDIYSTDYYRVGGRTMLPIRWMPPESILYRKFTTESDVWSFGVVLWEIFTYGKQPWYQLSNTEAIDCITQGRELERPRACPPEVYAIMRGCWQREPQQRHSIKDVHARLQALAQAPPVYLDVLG
Method in brief: as §1

JAK2(h) = JAK2(h) (Homo sapiens, UniProt O60674)
JAK2(h), sequence (O60674 whole entry): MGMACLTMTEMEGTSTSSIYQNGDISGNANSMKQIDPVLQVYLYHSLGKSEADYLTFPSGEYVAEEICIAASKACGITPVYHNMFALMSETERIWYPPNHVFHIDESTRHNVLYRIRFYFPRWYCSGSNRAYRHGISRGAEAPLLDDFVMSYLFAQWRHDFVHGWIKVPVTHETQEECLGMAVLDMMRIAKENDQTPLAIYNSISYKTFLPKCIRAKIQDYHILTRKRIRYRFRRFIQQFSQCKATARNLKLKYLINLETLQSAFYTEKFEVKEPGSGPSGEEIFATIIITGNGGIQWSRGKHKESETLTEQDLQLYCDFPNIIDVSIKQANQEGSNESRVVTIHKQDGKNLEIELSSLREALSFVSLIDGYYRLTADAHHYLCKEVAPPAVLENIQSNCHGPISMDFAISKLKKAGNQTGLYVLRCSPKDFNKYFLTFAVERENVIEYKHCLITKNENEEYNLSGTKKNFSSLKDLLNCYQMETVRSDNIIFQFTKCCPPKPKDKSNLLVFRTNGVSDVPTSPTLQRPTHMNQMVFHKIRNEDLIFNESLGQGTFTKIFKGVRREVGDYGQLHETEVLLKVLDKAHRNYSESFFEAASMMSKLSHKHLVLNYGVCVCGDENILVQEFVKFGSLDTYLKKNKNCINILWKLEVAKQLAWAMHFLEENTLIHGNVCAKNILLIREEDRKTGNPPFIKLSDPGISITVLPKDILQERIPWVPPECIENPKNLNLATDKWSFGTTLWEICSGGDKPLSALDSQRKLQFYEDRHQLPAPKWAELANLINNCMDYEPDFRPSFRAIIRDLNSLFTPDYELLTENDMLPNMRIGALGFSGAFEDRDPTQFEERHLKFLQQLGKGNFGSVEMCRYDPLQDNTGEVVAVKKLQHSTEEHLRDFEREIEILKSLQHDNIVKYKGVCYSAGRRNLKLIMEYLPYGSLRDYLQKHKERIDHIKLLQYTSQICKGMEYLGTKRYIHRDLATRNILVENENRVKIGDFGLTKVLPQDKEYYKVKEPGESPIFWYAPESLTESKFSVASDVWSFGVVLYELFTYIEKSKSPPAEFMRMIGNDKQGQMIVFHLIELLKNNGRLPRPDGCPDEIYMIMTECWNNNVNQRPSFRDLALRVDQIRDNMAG
Method in brief: as §1

cSRC(h) = target: T2, cSRC(h) (Homo sapiens, UniProt P12931)
T2 construct: gene SRC
Method in brief: as §1

Met(h) = Met(h) (Homo sapiens, UniProt P08581)
Method in brief: as §1

KDR(h) = KDR(h) (Homo sapiens, UniProt P35968)
Method in brief: as §1

MAPKAP-K2(h) = target: T3, MAPKAP-K2(h) (Homo sapiens, UniProt P49137)
T3 construct: gene MAPKAPK2
Method in brief: as §1

PIK3CA = PIK3CA (Homo sapiens, UniProt P42336)
Method in brief: as §1

BRK(h) = target: T4, BRK(h) (Homo sapiens, UniProt Q13882)
T4 construct: gene PTK6
Method in brief: as §1

EGFR(T790M,L858R)(h) = EGFR(T790M,L858R)(h) (Homo sapiens, UniProt P00533, L858R/T790M)
EGFR(T790M,L858R)(h), sequence (P00533 whole entry T790M/L858R): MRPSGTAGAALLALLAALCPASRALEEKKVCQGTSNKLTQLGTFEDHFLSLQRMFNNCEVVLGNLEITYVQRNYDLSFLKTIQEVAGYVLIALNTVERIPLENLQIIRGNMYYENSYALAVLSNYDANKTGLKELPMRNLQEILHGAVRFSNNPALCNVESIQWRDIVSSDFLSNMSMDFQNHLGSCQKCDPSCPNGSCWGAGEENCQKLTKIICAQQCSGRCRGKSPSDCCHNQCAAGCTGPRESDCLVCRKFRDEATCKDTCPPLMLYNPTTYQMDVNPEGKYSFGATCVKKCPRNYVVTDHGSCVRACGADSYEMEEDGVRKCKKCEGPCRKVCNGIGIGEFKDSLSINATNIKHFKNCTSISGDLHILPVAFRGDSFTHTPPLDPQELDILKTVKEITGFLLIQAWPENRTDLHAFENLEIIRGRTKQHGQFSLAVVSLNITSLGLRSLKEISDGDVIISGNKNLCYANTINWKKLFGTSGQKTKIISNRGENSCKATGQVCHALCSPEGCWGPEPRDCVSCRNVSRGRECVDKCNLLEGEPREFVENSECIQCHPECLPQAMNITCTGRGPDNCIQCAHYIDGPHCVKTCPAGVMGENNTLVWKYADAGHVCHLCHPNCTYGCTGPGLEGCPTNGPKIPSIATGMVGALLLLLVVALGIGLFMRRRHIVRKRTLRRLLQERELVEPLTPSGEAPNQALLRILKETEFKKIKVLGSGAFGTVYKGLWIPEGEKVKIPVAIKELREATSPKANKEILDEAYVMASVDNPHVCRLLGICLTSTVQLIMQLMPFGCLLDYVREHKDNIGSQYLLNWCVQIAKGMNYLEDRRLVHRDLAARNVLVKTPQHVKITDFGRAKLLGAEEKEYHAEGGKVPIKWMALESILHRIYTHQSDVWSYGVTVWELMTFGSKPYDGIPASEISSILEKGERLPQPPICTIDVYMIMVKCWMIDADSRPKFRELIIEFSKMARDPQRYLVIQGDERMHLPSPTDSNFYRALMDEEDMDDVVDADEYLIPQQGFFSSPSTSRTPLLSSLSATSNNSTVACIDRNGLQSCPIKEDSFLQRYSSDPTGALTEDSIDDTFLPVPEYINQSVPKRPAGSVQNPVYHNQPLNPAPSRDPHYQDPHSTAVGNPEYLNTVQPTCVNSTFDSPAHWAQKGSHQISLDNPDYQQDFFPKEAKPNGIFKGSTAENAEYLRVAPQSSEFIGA
Method in brief: as §1

TAK1(h) = target: T5, TAK1(h) (Homo sapiens, UniProt O43318)
T5 construct: gene MAP3K7
T5 sequence (O43318 whole entry): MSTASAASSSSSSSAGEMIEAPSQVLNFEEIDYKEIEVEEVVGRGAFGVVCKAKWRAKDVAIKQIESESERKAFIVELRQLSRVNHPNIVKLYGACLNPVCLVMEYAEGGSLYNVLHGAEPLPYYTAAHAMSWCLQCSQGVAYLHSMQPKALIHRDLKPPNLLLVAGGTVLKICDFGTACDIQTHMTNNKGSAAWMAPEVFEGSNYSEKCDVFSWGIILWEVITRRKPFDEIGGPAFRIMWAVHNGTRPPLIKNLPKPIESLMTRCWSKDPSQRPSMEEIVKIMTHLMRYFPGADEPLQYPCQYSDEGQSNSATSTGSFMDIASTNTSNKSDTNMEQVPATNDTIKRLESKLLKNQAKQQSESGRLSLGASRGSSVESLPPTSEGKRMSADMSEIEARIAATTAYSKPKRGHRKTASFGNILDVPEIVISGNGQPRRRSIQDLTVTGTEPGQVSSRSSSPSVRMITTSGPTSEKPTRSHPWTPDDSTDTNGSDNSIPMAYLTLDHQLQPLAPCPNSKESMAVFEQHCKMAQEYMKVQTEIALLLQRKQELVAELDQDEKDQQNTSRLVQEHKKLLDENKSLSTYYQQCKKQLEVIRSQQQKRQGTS
Method in brief: as §1

NEK2(h) = NEK2(h) (Homo sapiens, UniProt P51955)
Method in brief: as §1

MEK1(h) = target: T6, MEK1(h) (Homo sapiens, UniProt Q02750)
T6 construct: gene MAP2K1
Method in brief: as §1

cKit(D816H)(h) = target: T7, cKit(D816H)(h) (Homo sapiens, UniProt P10721, D816H)
T7 construct: gene KIT
Method in brief: as §1

HIPK1(h), sequence (Q86Z02 whole entry): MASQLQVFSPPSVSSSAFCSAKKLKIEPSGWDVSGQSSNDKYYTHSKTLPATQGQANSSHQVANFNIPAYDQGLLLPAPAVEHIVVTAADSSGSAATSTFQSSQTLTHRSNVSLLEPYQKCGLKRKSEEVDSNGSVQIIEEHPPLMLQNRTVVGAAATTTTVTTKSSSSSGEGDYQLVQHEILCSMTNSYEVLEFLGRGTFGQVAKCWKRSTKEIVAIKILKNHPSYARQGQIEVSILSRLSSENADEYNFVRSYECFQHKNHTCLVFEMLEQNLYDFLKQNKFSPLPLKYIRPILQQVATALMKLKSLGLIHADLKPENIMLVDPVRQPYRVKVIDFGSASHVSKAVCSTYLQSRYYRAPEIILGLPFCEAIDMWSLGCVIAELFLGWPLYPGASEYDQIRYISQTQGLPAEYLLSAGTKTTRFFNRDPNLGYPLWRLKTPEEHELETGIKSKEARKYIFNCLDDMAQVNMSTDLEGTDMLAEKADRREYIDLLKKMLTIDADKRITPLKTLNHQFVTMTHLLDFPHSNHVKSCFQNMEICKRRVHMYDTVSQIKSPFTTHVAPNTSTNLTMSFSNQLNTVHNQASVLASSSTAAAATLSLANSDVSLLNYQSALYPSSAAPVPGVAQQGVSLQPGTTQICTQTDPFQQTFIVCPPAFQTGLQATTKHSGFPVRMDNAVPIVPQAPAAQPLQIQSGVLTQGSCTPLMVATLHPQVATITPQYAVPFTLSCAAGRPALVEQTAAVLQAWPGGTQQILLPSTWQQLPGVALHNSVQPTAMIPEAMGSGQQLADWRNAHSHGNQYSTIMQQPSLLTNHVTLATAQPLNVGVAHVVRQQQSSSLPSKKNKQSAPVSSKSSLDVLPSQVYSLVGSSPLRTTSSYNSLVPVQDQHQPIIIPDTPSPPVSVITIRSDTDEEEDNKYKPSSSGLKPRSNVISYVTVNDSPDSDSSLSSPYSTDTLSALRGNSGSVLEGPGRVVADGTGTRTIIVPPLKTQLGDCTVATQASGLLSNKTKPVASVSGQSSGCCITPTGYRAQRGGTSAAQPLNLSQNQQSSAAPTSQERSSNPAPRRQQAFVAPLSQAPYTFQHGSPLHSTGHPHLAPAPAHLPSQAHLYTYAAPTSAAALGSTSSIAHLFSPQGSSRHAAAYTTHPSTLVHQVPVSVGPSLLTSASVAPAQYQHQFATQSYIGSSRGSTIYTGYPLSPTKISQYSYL

Structure (SMILES): CC[C@@H](N)CNc1ccnc(-c2cc(-c3cnn(C)c3)ccc2O)n1 [CRT0066101]
- inhibition at 1 µM (HIPK1(h)): 23%
- inhibition at 1 µM (SPHK2): 20%
- inhibition at 1 µM (ALK(h)): 3%
- inhibition at 1 µM (EphA2(h)): 2%
- inhibition at 1 µM (Flt4(h)): 22%
- inhibition at 1 µM (TrkA(h)): 23%
- inhibition at 1 µM (JAK2(h)): 10%
- inhibition at 1 µM (cSRC(h)): 3%
- inhibition at 1 µM (Met(h)): 12%
- inhibition at 1 µM (KDR(h)): 13%
- inhibition at 1 µM (MAPKAP-K2(h)): -9%
- inhibition at 1 µM (PIK3CA): 1%
- inhibition at 1 µM (BRK(h)): 17%
- inhibition at 1 µM (EGFR(T790M,L858R)(h)): -3%
- inhibition at 1 µM (TAK1(h)): -6%
- inhibition at 1 µM (NEK2(h)): 0%
- inhibition at 1 µM (MEK1(h)): 9%
- inhibition at 1 µM (cKit(D816H)(h)): 51%
